From patent publication US12435087B2, “Modulators of DCN-1 and methods of use thereof” (Cellarity, Inc., priority 2023, dated 2025)
Like-named read-outs stand apart in the source and are kept apart here.

Target: DCN1 (DCUND1) protein PONY domain (Homo sapiens (Human), UniProt Q96GG9)
Assay: TR-FRET assay (binding to DCN-1, displacement of FAM-labeled probe)
How it was run: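 Compounds read at 1, 5 and 24 h, 0.1% final DMSO, by TR-FRET between terbium-streptavidin on biotinylated DCN1 PONY domain (E. coli) and a FAM-tagged non-covalent inhibitor probe. Two setups used, 5 nM protein with 20 nM labelled probe, or 0.31 nM protein with 100 nM labelled plus 800 nM unlabelled probe; buffer had TritonX and 200 mM NaCl. % activity relative to high (with probe) and low (without probe) controls.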

[1] = 24 hr after treatment with compound, read-out: TR FRET IC50 24 hr
[2] = TR FRET IC50 1 hr (nM), 1 hr after treatment with compound
[3] = read-out: TR FRET IC50 1 hr, 1 hr after treatment with compound

Chain of DCN1 (DCUND1) protein PONY domain (Q96GG9 60-248): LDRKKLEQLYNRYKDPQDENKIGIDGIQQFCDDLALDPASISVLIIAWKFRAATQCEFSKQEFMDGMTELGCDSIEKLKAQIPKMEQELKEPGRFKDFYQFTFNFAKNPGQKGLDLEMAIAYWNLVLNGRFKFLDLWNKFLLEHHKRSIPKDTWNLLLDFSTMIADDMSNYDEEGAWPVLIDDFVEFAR

SMILES: CCN1C(=O)[C@@H](NC(=O)c2cccc(C(F)(F)F)c2)[C@H](c2cccc(CN(C)C#N)c2)c2cnn(-c3ccccc3)c21 (racemic) [Compound I-104]
- IC50 [1]: 1000 to 3000 nM
- IC50 [2]: 1000 to 3000 nM

SMILES: C/C=C(\CN1CCC1)C(=O)NCc1cccc([C@@H]2c3cnn(-c4ccccc4)c3N(CC)C(=O)[C@H]2NC(=O)c2nccc(C(F)(F)F)n2)c1 [Compound I-314]
- IC50 [1]: ≤ 200 nM
- IC50 [2]: 200 to 1000 nM

SMILES: CCN1C(=O)[C@@H](NC(=O)c2nccc(C(F)(F)F)n2)[C@H](c2ccccc2/C=C/C#N)c2cnn(-c3ccccc3)c21 (racemic) [Compound I-259, rac-N-((4R,5S)-4-(2-((E)-2-cyanovinyl)phenyl)-7-ethyl-6-oxo-1-phenyl-4,5,6,7-tetrahydro-1H-pyrazolo[3,4-b]pyridin-5-yl)-4-(trifluoromethyl)pyrimidine-2-carboxamide]
- IC50 [1]: 1000 to 3000 nM
- IC50 [2]: 1000 to 3000 nM

SMILES: C=C(C(=O)NCc1cccc([C@@H]2c3cnn(-c4ccccc4)c3N(CC)C(=O)[C@H]2NC(=O)c2cccc(C(F)(F)F)c2)c1)C(C)N1CCN(C2COC2)CC1 (stereo partly shown) [Compound I-317]
- IC50 [1]: ≤ 200 nM
- IC50 [3]: ≤ 200 nM

SMILES: C=C(CN1CCOCC1)C(=O)NCc1cccc([C@@H]2c3cnn(-c4ccccc4)c3N(CC)C(=O)[C@H]2NC(=O)c2ccn(C)n2)c1 (single isomer, unassigned) [Compound I-51]
- IC50 [3]: 1000 to 3000 nM

SMILES: C=C(CN1CCOCC1)C(=O)NCc1cccc([C@@H]2c3cnn(-c4ccccc4)c3N(CC)C(=O)[C@H]2NC(=O)c2ccn(CCF)n2)c1 [Compound I-357]
- IC50 [1]: ≤ 200 nM
- IC50 [2]: 200 to 1000 nM

SMILES: Cc1nn(-c2ccccc2)c2c1[C@H](c1cccc(NC(=O)C3=CCC3)c1)[C@@H](NC(=O)c1cccc(C(F)(F)F)c1)C(=O)N2CCO (racemic) [Compound I-92, rac-N-((4R,5S)-4-(3-(cyclobut-1-ene-1-carboxamido)phenyl)-7-(2-hydroxyethyl)-3-methyl-6-oxo-1-phenyl-4,5,6,7-tetrahydro-1H-pyrazolo[3,4-b]pyridin-5-yl)-3-(trifluoromethyl)benzamide]
- IC50 [1]: 1000 to 3000 nM
- IC50 [2]: 1000 to 3000 nM

SMILES: CCN1C(=O)[C@@H](NC(=O)c2cccc(C(F)(F)F)c2)[C@H](c2ccccc2CN(C)C#N)c2cnn(-c3ccccc3)c21 (racemic) [Compound I-49]
- IC50 [1]: 1000 to 3000 nM
- IC50 [2]: 1000 to 3000 nM

SMILES: CCN1C(=O)[C@@H](NC(=O)c2cccc(C(F)(F)F)c2)[C@H](c2cccc(CNC#N)c2)c2c(C)nn(-c3ccccc3)c21 (racemic) [Compound I-138]
- IC50 [1]: 200 to 1000 nM
- IC50 [2]: 200 to 1000 nM

SMILES: C=C(CN1CC(F)(F)C1)C(=O)NCc1cccc([C@@H]2c3cnn(-c4ccccc4)c3N(CC)C(=O)[C@H]2NC(=O)c2nccc(C(F)(F)F)n2)c1 [Compound I-261]
- IC50 [1]: ≤ 200 nM
- IC50 [2]: 200 to 1000 nM

SMILES: C=C(CN1CC2(CCC2O)C1)C(=O)NCc1cccc([C@@H]2c3cnn(-c4ccccc4)c3N(CC)C(=O)[C@H]2NC(=O)c2cccc(C(F)(F)F)c2)c1 (stereo partly shown) [Compound I-375]
- IC50 [1]: ≤ 200 nM
- IC50 [3]: ≤ 200 nM

SMILES: CCN1C(=O)[C@H](NC(=O)c2cccc(C(F)(F)F)c2)[C@@H](c2ccccc2NC(=O)C23CC2C3)c2cnn(-c3ccccc3)c21 (mixture of isomers) [Compound I-45, {N}-[2-[˜{rac}-(4˜{S},5˜{R})-7-ethyl-6-oxo-1-phenyl-5-[[3-(trifluoromethyl)benzoyl]amino]-4,5-dihydropyrazolo[3,4-b]pyridin-4-yl]phenyl]bicyclo[1.1.0]butane-1-carboxamide]
- IC50 [1]: 1000 to 3000 nM
- IC50 [2]: 1000 to 3000 nM

SMILES: CCN1C(=O)[C@@H](NC(=O)c2cccc(C(F)(F)F)c2)[C@H](c2cccc(CNC(=O)C3=CCCN(C)C3)c2)c2cnn(-c3ccccc3)c21 [Compound I-33]
- IC50 [1]: 1000 to 3000 nM
- IC50 [2]: 1000 to 3000 nM

SMILES: CCN1C(=O)[C@H](NC(=O)c2cccc(C(F)(F)F)c2)[C@@H](c2cccc(CNC(=O)/C(C)=C/C(=O)OC)c2)c2cnn(-c3ccccc3)c21 [Compound I-125]
- IC50 [1]: 1000 to 3000 nM
- IC50 [2]: 1000 to 3000 nM

SMILES: C/C=C(/CN1CCN(C2COC2)CC1)C(=O)N(C)c1cccc([C@@H]2c3cnn(-c4ccccc4)c3N(CC)C(=O)[C@H]2NC(=O)c2csc(C(F)(F)F)n2)c1 [Compound I-369]
- IC50 [1]: 1000 to 3000 nM
- IC50 [2]: 1000 to 3000 nM

SMILES: C=C(CN1CCC12COC2)C(=O)NCc1cccc([C@@H]2c3cnn(-c4ccccc4)c3N(CC)C(=O)[C@H]2NC(=O)c2ccn(C(F)(F)F)n2)c1 [Compound I-247]
- IC50 [1]: ≤ 200 nM
- IC50 [2]: 200 to 1000 nM

SMILES: CCN1C(=O)[C@H](NC(=O)c2cccc(C(F)(F)F)c2)[C@@H](c2cccc(NC(=O)C34CC3C4)c2)c2c(C)nn(-c3ccccc3)c21 (mixture of isomers) [Compound I-80]
- IC50 [1]: 1000 to 3000 nM
- IC50 [2]: 1000 to 3000 nM

SMILES: C/C=C(\CN1CC2(COC2)C1)C(=O)NCc1cccc([C@@H]2c3cnn(-c4ccccc4)c3N(CC)C(=O)[C@H]2NC(=O)c2ccn(C(F)(F)F)n2)c1 [Compound I-302]
- IC50 [1]: ≤ 200 nM
- IC50 [2]: 200 to 1000 nM

SMILES: C=C(C(=O)NCc1cccc([C@@H]2c3cnn(-c4ccccc4)c3N(CC)C(=O)[C@H]2NC(=O)c2nccc(C(F)(F)F)n2)c1)[C@H](C)N(C)C1COC1 (single isomer, unassigned) [Compound I-382]
- IC50 [2]: 200 to 1000 nM

SMILES: CCN1C(=O)[C@@H](NC(=O)c2cccc(C(F)(F)F)c2)[C@H](c2ccccc2CNC#N)c2cnn(-c3ccccc3)c21 (racemic) [Compound I-31]
- IC50 [1]: 1000 to 3000 nM
- IC50 [2]: 1000 to 3000 nM

SMILES: C=C(CC(=O)OC)C(=O)NCc1cccc([C@@H]2c3cnn(-c4ccccc4)c3N(CC)C(=O)[C@H]2NC(=O)c2cccc(C(F)(F)F)c2)c1 [Compound I-50]
- IC50 [1]: ≤ 200 nM
- IC50 [2]: 1000 to 3000 nM

SMILES: CCN1C(=O)[C@H](NC(=O)c2cccc(C(F)(F)F)c2)[C@@H](c2cccc(CNC(=O)C3=C(C(=O)OC)CC3)c2)c2cnn(-c3ccccc3)c21 [Compound I-118]
- IC50 [1]: 1000 to 3000 nM
- IC50 [2]: 1000 to 3000 nM

SMILES: CCN1C(=O)[C@@H](NC(=O)c2cccc(C(F)(F)F)c2)[C@H](c2cncc(NC(=O)/C=C/CN(C)C)c2)c2cnn(-c3ccccc3)c21 [Compound I-320]
- IC50 [1]: 200 to 1000 nM
- IC50 [2]: 1000 to 3000 nM

SMILES: CCC(=O)NCc1cccc([C@@H]2c3cnn(-c4ccccc4)c3N(CC)C(=O)[C@H]2NC(=O)c2ccn(C(F)(F)F)n2)c1 [Compound I-335]
- IC50 [1]: 200 to 1000 nM
- IC50 [2]: 1000 to 3000 nM

SMILES: C=C(CN1CC2CC(C1)O2)C(=O)N(C)Cc1cccc([C@@H]2c3cnn(-c4ccccc4)c3N(CC)C(=O)[C@H]2NC(=O)c2ccn(C3CC3)n2)c1 [Compound I-258]
- IC50 [2]: 1000 to 3000 nM

SMILES: C=C(CN1CCC12COC2)C(=O)NCc1cccc([C@@H]2c3cnn(-c4ccccc4)c3N(CC)C(=O)[C@H]2NC(=O)c2nccc(C(F)(F)F)n2)c1 [Compound I-246]
- IC50 [1]: ≤ 200 nM
- IC50 [3]: ≤ 200 nM

SMILES: C=C(F)C(=O)Nc1cccc([C@H]2c3c(C)nn(-c4ccccc4)c3N(CC)C(=O)[C@@H]2NC(=O)c2cccc(C(F)(F)F)c2)c1 (racemic) [Compound I-140, N-((4S,5R)-7-ethyl-4-(3-(2-fluoroacrylamido)phenyl)-3-methyl-6-oxo-1-phenyl-4,5,6,7-tetrahydro-1H-pyrazolo[3,4-b]pyridin-5-yl)-3(trifluoromethyl) benzamide]
- IC50 [1]: > 3000 nM
- IC50 [2]: > 3000 nM

SMILES: C=C(CN1CCCC1)C(=O)NCc1cccc([C@@H]2c3cnn(-c4ccccc4)c3N(CC)C(=O)[C@H]2NC(=O)c2cccc(C(F)(F)F)c2)c1 [Compound I-264]
- IC50 [1]: ≤ 200 nM
- IC50 [3]: ≤ 200 nM

SMILES: CCN1C(=O)[C@@H](NC(=O)c2cccc(C(F)(F)F)c2)[C@H](c2ccccc2CNC(=O)C(F)Cl)c2cnn(-c3ccccc3)c21 (mixture of isomers) [Compound I-105]
- IC50 [1]: 1000 to 3000 nM
- IC50 [2]: 1000 to 3000 nM

SMILES: C/C=C(\CN1CC2(COC2)C1)C(=O)N(C)Cc1cccc([C@@H]2c3cnn(-c4ccccc4)c3N(CC)C(=O)[C@H]2NC(=O)c2ccn(C(F)(F)F)n2)c1 [Compound I-321]
- IC50 [1]: 1000 to 3000 nM
- IC50 [2]: 1000 to 3000 nM

SMILES: CCN1C(=O)[C@@H](NC(=O)c2nccc(C(F)(F)F)n2)[C@H](c2cccc(NC(=O)C3=CCC3)n2)c2cnn(-c3ccccc3)c21 (racemic) [Compound I-279]
- IC50 [1]: 1000 to 3000 nM
- IC50 [2]: 1000 to 3000 nM

SMILES: C=C(CN1CCC12COC2)C(=O)NCc1cccc([C@@H]2c3cnn(-c4ccccc4)c3N(CC)C(=O)[C@H]2NC(=O)c2cccc(C(F)(F)F)c2)c1 [Compound I-332]
- IC50 [1]: ≤ 200 nM
- IC50 [3]: ≤ 200 nM

SMILES: CCN1C(=O)[C@@H](NC(=O)c2nccc(C(F)(F)F)n2)[C@H](c2cccc(C(=O)N3C[C@@H](F)C[C@H]3C#N)c2)c2cnn(-c3ccccc3)c21 [Compound I-330]
- IC50 [1]: 1000 to 3000 nM
- IC50 [2]: 1000 to 3000 nM

SMILES: CCN1C(=O)[C@@H](NC(=O)c2cccc(C(F)(F)F)c2)[C@H](c2ccccc2CNC(=O)C(C)Cl)c2cnn(-c3ccccc3)c21 (mixture of isomers) [Compound I-114]
- IC50 [1]: 1000 to 3000 nM
- IC50 [2]: 1000 to 3000 nM

SMILES: CCN1C(=O)[C@H](NC(=O)c2cccc(C(F)(F)F)c2)[C@@H](c2cccc(CNC(=O)C3=C(C(=O)OC)CCC3)c2)c2cnn(-c3ccccc3)c21 [Compound I-119]
- IC50 [1]: 1000 to 3000 nM
- IC50 [2]: 1000 to 3000 nM

SMILES: CCN1C(=O)[C@H](NC(=O)c2cccc(C(F)(F)F)c2)[C@@H](c2ccccc2N2CC=CC2=O)c2cnn(-c3ccccc3)c21 (racemic) [Compound I-21]
- IC50 [1]: > 3000 nM
- IC50 [2]: > 3000 nM

SMILES: CCN1C(=O)[C@@H](NC(=O)c2nccc(C(F)(F)F)n2)[C@H](c2cccc(NC(=O)/C=C/CN(C)C)n2)c2cnn(-c3ccccc3)c21 (racemic) [Compound I-265]
- IC50 [1]: 200 to 1000 nM
- IC50 [2]: 200 to 1000 nM

SMILES: C=C(C(=O)NCc1cccc([C@@H]2c3cnn(-c4ccccc4)c3N(CC)C(=O)[C@H]2NC(=O)c2ccn(CCF)n2)c1)C(C)N(C)C1COC1 (stereo partly shown) [Compound I-334]
- IC50 [1]: ≤ 200 nM
- IC50 [2]: 200 to 1000 nM
